± gives the expanded uncertainty stated by the source.
Settings: 101.33 kPa, Liquid, Vibrating tube method

CC(O)CN (configuration not stated) [1-amino-2-propanol]
mass density (278.16 K): 972.17 ± 0.49 kg/m3 | mass density (278.65 K): 971.79 ± 0.49 kg/m3 | mass density (279.14 K): 971.4 ± 0.49 kg/m3 | mass density (279.65 K): 971.01 ± 0.49 kg/m3 | mass density (280.15 K): 970.62 ± 0.49 kg/m3 | mass density (280.65 K): 970.23 ± 0.49 kg/m3 | mass density (281.15 K): 969.84 ± 0.49 kg/m3 | mass density (281.65 K): 969.45 ± 0.49 kg/m3 | mass density (282.15 K): 969.05 ± 0.49 kg/m3 | mass density (282.65 K): 968.66 ± 0.49 kg/m3 | mass density (283.15 K): 968.27 ± 0.49 kg/m3 | mass density (283.65 K): 967.88 ± 0.49 kg/m3 | mass density (284.15 K): 967.49 ± 0.49 kg/m3 | mass density (284.65 K): 967.1 ± 0.49 kg/m3 | mass density (285.15 K): 966.7 ± 0.49 kg/m3 | mass density (285.65 K): 966.31 ± 0.49 kg/m3 | mass density (286.15 K): 965.92 ± 0.49 kg/m3 | mass density (286.64 K): 965.52 ± 0.49 kg/m3 | mass density (287.15 K): 965.13 ± 0.49 kg/m3 | mass density (287.65 K): 964.73 ± 0.49 kg/m3 | mass density (288.15 K): 964.34 ± 0.49 kg/m3 | mass density (288.65 K): 963.95 ± 0.49 kg/m3 | mass density (289.15 K): 963.55 ± 0.49 kg/m3 | mass density (289.65 K): 963.15 ± 0.49 kg/m3 | mass density (290.15 K): 962.76 ± 0.49 kg/m3 | mass density (290.65 K): 962.36 ± 0.49 kg/m3 | mass density (291.15 K): 961.97 ± 0.49 kg/m3 | mass density (291.64 K): 961.57 ± 0.49 kg/m3 | mass density (292.15 K): 961.18 ± 0.49 kg/m3 | mass density (292.65 K): 960.78 ± 0.49 kg/m3 | mass density (293.15 K): 960.38 ± 0.49 kg/m3 | mass density (293.64 K): 959.99 ± 0.49 kg/m3 | mass density (294.14 K): 959.59 ± 0.49 kg/m3 | mass density (294.64 K): 959.19 ± 0.49 kg/m3 | mass density (295.15 K): 958.79 ± 0.49 kg/m3 | mass density (295.65 K): 958.39 ± 0.49 kg/m3 | mass density (296.15 K): 957.99 ± 0.49 kg/m3 | mass density (296.65 K): 957.6 ± 0.49 kg/m3 | mass density (297.15 K): 957.2 ± 0.49 kg/m3 | mass density (297.64 K): 956.8 ± 0.49 kg/m3 | mass density (298.15 K): 956.4 ± 0.49 kg/m3 | mass density (298.65 K): 956 ± 0.49 kg/m3 | mass density (299.15 K): 955.6 ± 0.49 kg/m3 | mass density (299.64 K): 955.2 ± 0.49 kg/m3 | mass density (300.14 K): 954.8 ± 0.49 kg/m3 | mass density (300.64 K): 954.4 ± 0.49 kg/m3 | mass density (301.15 K): 954 ± 0.49 kg/m3 | mass density (301.65 K): 953.59 ± 0.49 kg/m3 | mass density (302.14 K): 953.2 ± 0.5 kg/m3 | mass density (302.65 K): 952.79 ± 0.49 kg/m3 | mass density (303.15 K): 952.39 ± 0.49 kg/m3 | mass density (303.64 K): 951.99 ± 0.49 kg/m3 | mass density (304.15 K): 951.59 ± 0.49 kg/m3 | mass density (304.65 K): 951.18 ± 0.49 kg/m3 | mass density (305.15 K): 950.78 ± 0.48 kg/m3 | mass density (305.64 K): 950.38 ± 0.48 kg/m3 | mass density (306.15 K): 949.98 ± 0.48 kg/m3 | mass density (306.65 K): 949.57 ± 0.48 kg/m3 | mass density (307.15 K): 949.17 ± 0.48 kg/m3 | mass density (307.64 K): 948.77 ± 0.48 kg/m3 | mass density (308.15 K): 948.36 ± 0.48 kg/m3 | mass density (308.65 K): 947.95 ± 0.48 kg/m3 | mass density (309.15 K): 947.55 ± 0.48 kg/m3 | mass density (309.65 K): 947.14 ± 0.48 kg/m3 | mass density (310.15 K): 946.74 ± 0.48 kg/m3 | mass density (310.65 K): 946.33 ± 0.48 kg/m3 | mass density (311.15 K): 945.92 ± 0.48 kg/m3 | mass density (311.64 K): 945.52 ± 0.48 kg/m3 | mass density (312.15 K): 945.11 ± 0.48 kg/m3 | mass density (312.64 K): 944.7 ± 0.5 kg/m3 | mass density (313.15 K): 944.3 ± 0.48 kg/m3 | mass density (313.65 K): 943.89 ± 0.48 kg/m3 | mass density (314.15 K): 943.48 ± 0.48 kg/m3 | mass density (314.65 K): 943.07 ± 0.48 kg/m3 | mass density (315.15 K): 942.66 ± 0.48 kg/m3 | mass density (315.65 K): 942.25 ± 0.48 kg/m3 | mass density (316.15 K): 941.84 ± 0.48 kg/m3 | mass density (316.65 K): 941.43 ± 0.48 kg/m3 | mass density (317.15 K): 941.03 ± 0.48 kg/m3 | mass density (317.65 K): 940.61 ± 0.48 kg/m3 | mass density (318.15 K): 940.2 ± 0.48 kg/m3 | mass density (318.65 K): 939.79 ± 0.48 kg/m3 | mass density (319.14 K): 939.38 ± 0.48 kg/m3 | mass density (319.65 K): 938.96 ± 0.48 kg/m3 | mass density (320.15 K): 938.55 ± 0.48 kg/m3 | mass density (320.64 K): 938.14 ± 0.48 kg/m3 | mass density (321.15 K): 937.72 ± 0.48 kg/m3 | mass density (321.65 K): 937.31 ± 0.48 kg/m3 | mass density (322.15 K): 936.9 ± 0.48 kg/m3 | mass density (322.65 K): 936.49 ± 0.48 kg/m3 | mass density (323.15 K): 936.08 ± 0.48 kg/m3 | mass density (323.65 K): 935.66 ± 0.48 kg/m3 | mass density (324.15 K): 935.25 ± 0.48 kg/m3 | mass density (324.65 K): 934.83 ± 0.48 kg/m3 | mass density (325.15 K): 934.42 ± 0.48 kg/m3 | mass density (325.65 K): 934.01 ± 0.48 kg/m3 | mass density (326.15 K): 933.59 ± 0.48 kg/m3 | mass density (326.65 K): 933.18 ± 0.48 kg/m3 | mass density (327.15 K): 932.76 ± 0.48 kg/m3 | mass density (327.65 K): 932.35 ± 0.48 kg/m3 | mass density (328.15 K): 931.93 ± 0.48 kg/m3 | mass density (328.66 K): 931.51 ± 0.48 kg/m3 | mass density (329.15 K): 931.09 ± 0.48 kg/m3 | mass density (329.66 K): 930.68 ± 0.48 kg/m3 | mass density (330.16 K): 930.26 ± 0.48 kg/m3 | mass density (330.66 K): 929.84 ± 0.48 kg/m3 | mass density (331.15 K): 929.42 ± 0.48 kg/m3 | mass density (331.66 K): 929 ± 0.48 kg/m3 | mass density (332.16 K): 928.58 ± 0.48 kg/m3 | mass density (332.66 K): 928.16 ± 0.48 kg/m3 | mass density (333.16 K): 927.74 ± 0.48 kg/m3 | mass density (333.66 K): 927.31 ± 0.48 kg/m3 | mass density (334.16 K): 926.89 ± 0.47 kg/m3 | mass density (334.66 K): 926.47 ± 0.47 kg/m3 | mass density (335.16 K): 926.05 ± 0.47 kg/m3 | mass density (335.66 K): 925.63 ± 0.47 kg/m3 | mass density (336.16 K): 925.2 ± 0.47 kg/m3 | mass density (336.66 K): 924.78 ± 0.47 kg/m3 | mass density (337.16 K): 924.36 ± 0.47 kg/m3 | mass density (337.66 K): 923.93 ± 0.47 kg/m3 | mass density (338.16 K): 923.5 ± 0.47 kg/m3 | mass density (338.66 K): 923.08 ± 0.47 kg/m3 | mass density (339.16 K): 922.65 ± 0.47 kg/m3 | mass density (339.66 K): 922.23 ± 0.47 kg/m3 | mass density (340.16 K): 921.8 ± 0.47 kg/m3 | mass density (340.66 K): 921.38 ± 0.47 kg/m3 | mass density (341.16 K): 920.95 ± 0.47 kg/m3 | mass density (341.66 K): 920.52 ± 0.47 kg/m3 | mass density (342.16 K): 920.09 ± 0.47 kg/m3 | mass density (342.66 K): 919.66 ± 0.47 kg/m3 | mass density (343.16 K): 919.23 ± 0.47 kg/m3 | mass density (343.66 K): 918.8 ± 0.5 kg/m3 | mass density (344.16 K): 918.37 ± 0.47 kg/m3 | mass density (344.66 K): 917.94 ± 0.47 kg/m3 | mass density (345.16 K): 917.51 ± 0.47 kg/m3 | mass density (345.66 K): 917.08 ± 0.47 kg/m3 | mass density (346.16 K): 916.65 ± 0.47 kg/m3 | mass density (346.66 K): 916.21 ± 0.47 kg/m3 | mass density (347.16 K): 915.78 ± 0.47 kg/m3 | mass density (347.66 K): 915.35 ± 0.47 kg/m3 | mass density (348.16 K): 914.92 ± 0.47 kg/m3 | mass density (348.66 K): 914.48 ± 0.47 kg/m3 | mass density (349.16 K): 914.05 ± 0.47 kg/m3 | mass density (349.66 K): 913.61 ± 0.47 kg/m3 | mass density (350.16 K): 913.18 ± 0.47 kg/m3 | mass density (350.66 K): 912.74 ± 0.47 kg/m3 | mass density (351.16 K): 912.3 ± 0.5 kg/m3 | mass density (351.66 K): 911.87 ± 0.47 kg/m3 | mass density (352.16 K): 911.43 ± 0.47 kg/m3 | mass density (352.66 K): 910.99 ± 0.47 kg/m3 | mass density (353.16 K): 910.55 ± 0.47 kg/m3 | mass density (353.66 K): 910.12 ± 0.47 kg/m3 | mass density (354.16 K): 909.68 ± 0.47 kg/m3 | mass density (354.66 K): 909.23 ± 0.47 kg/m3 | mass density (355.16 K): 908.8 ± 0.5 kg/m3 | mass density (355.66 K): 908.35 ± 0.47 kg/m3 | mass density (356.16 K): 907.91 ± 0.47 kg/m3 | mass density (356.66 K): 907.47 ± 0.47 kg/m3 | mass density (357.16 K): 907.03 ± 0.47 kg/m3 | mass density (357.66 K): 906.59 ± 0.47 kg/m3 | mass density (358.16 K): 906.14 ± 0.47 kg/m3 | mass density (358.66 K): 905.7 ± 0.5 kg/m3 | mass density (359.16 K): 905.26 ± 0.47 kg/m3 | mass density (359.66 K): 904.81 ± 0.47 kg/m3 | mass density (360.16 K): 904.36 ± 0.47 kg/m3 | mass density (360.65 K): 903.92 ± 0.47 kg/m3 | mass density (361.16 K): 903.47 ± 0.47 kg/m3 | mass density (361.66 K): 903.03 ± 0.47 kg/m3 | mass density (362.16 K): 902.58 ± 0.47 kg/m3 | mass density (362.66 K): 902.13 ± 0.47 kg/m3 | mass density (363.15 K): 901.68 ± 0.46 kg/m3 | mass density (363.16 K): 901.69 ± 0.46 kg/m3

From the NIST ThermoML archive (doi:10.1016/j.tca.2005.10.007)
